Data: patent publication US20230295109A1, “PYRIDINONE COMPOUNDS FOR THE TREATMENT OF AUTOIMMUNE DISEASE” (F. Hoffmann-La Roche AG, priority 2020, published 2023)
pIC50: −log10 of the molar value.

Target: T1, human TLR7 (Homo sapiens, UniProt Q9NYK1)
T1 construct: host or cells: HEK293 (HEK-Blue hTLR7)
T1 sequence (Q9NYK1 27-1049): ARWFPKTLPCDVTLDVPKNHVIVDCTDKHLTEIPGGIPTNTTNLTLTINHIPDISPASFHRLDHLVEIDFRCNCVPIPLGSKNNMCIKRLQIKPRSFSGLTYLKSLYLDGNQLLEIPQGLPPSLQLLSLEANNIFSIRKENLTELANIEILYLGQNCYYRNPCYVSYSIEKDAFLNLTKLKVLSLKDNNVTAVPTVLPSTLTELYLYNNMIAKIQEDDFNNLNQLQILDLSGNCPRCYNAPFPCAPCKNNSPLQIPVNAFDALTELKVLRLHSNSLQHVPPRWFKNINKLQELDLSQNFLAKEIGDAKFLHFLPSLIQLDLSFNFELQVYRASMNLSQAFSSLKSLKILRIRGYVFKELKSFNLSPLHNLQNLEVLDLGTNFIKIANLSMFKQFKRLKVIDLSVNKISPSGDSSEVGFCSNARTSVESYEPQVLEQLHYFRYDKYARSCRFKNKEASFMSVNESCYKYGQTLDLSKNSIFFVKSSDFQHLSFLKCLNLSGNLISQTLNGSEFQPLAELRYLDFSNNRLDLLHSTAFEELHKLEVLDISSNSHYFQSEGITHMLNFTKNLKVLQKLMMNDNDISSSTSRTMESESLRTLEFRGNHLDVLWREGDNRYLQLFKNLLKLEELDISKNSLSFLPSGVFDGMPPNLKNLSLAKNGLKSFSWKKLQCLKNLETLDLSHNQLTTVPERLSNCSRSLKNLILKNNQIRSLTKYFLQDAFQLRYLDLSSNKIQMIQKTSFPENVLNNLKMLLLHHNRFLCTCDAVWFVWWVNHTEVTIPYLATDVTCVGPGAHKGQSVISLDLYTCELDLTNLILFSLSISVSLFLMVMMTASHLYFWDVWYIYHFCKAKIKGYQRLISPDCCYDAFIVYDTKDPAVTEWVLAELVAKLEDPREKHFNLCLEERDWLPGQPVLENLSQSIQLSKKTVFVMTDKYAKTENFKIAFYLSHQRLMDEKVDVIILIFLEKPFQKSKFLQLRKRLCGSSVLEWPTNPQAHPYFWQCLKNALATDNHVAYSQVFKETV
Assay: HEK293-Blue-hTLR-7 cells assay
Assay type: cell-based
Conditions: HEK293-Blue-hTLR7 cells, R848 stimulation, 20 hrs, SEAP reporter; read-out: HEK/hTLR7 IC50
Description: A stable HEK293-Blue-hTLR-7 cell line was purchased from InvivoGen (Cat.#: hkb-htlr7, San Diego, California, USA). These cells were originally designed for studying the stimulation of human TLR7 by monitoring the activation of NF-κB. A SEAP (secreted embryonic alkaline phosphatase) reporter gene was placed under the control of the IFN-β minimal promoter fused to five NF-κB and AP-1-binding sites. The SEAP was induced by activating NF-κB and AP-1 via stimulating HEK-Blue hTLR7 cells with TLR7 ligands. Therefore the reporter expression was declined by TLR7 antagonist under the stimulation of a ligand, such as R848 (Resiquimod), for incubation of 20 hrs. The cell culture supernatant SEAP reporter activity was determined using QUANTI-Blue™ kit (Cat.#: rep-qb1, Invivogen, San Diego, Ca, USA) at a wavelength of 640 nm, a detection medium that turns purple or blue in the presence of alkaline phosphatase.
HEK293-Blue-hTLR7 cells were incubated at a density of 250,000~450,000 cells/mL in a volume of 170 µL in a 96-well plate in Dulbecco’s Modified Eagle’s medium (DMEM) containing 4.5 g/L glucose, 50 U/mL penicillin, […], […], 2 mM L-glutamine, 10% (v/v) heat-inactivated fetal bovine serum with addition of 20 µL test compound in a serial dilution in the presence of final DMSO at 1% and 10 µL of 20uM R848 in above DMEM, perform incubation under 37° C. in a CO2 incubator for 20 hrs. Then 20 µL of the supernatant from each well was incubated with 180 µL Quanti-blue substrate solution at 37° C. for 2 hrs and the absorbance was read at 620 \~655 nm using a spectrophotometer. The signaling pathway that TLR7 activation leads to downstream NF-κB activation has been widely accepted, and therefore similar reporter assay was modified for evaluating TLR7 antagonist.

Row | Structure (SMILES) | pIC50
1 | CCc1nc(N2CCN(Cc3cnc(N4CC5(CNCCO5)C4)nc3)CC2)ccc1-c1cc(C)c(=O)n(C)c1 [Example 1, 5-[2-ethyl-6-[4-[[2-(5-oxa-2,8-diazaspiro[3.5]nonan-2-yl)pyrimidin-5-yl]methyl]piperazin-1-yl]-3-pyridyl]-1,3-dimethyl-pyridin-2-one] | 8.05
2 | CCc1nc(N2CCN(Cc3ccc(N4CC5(CNCCO5)C4)nc3)CC2)ccc1-c1cc(C)c(=O)n(C)c1 [Example 2, 5-[2-ethyl-6-[4-[[6-(5-oxa-2,8-diazaspiro[3.5]nonan-2-yl)-3 pyridyl]methyl]piperazin-1-yl]-3-pyridyl]-1,3-dimethyl-pyridin-2-one] | 8.00
3 | CCc1nc(N2CCN(Cc3cnc(N4CC(C)(N)C4)nc3)CC2)ccc1-c1cc(C)c(=O)n(C)c1 [Example 3, 5-[6-[4-[[2-(3-amino-3-methyl-azetidin-1-yl)pyrimidin-5-yl]methyl]piperazin-1-yl]-2-ethyl-3-pyridyl]-1,3-dimethyl-pyridin-2-one] | 7.85
4 | CCc1nc(N2CCN(Cc3cnc(N4CCOC[C@@H](N)C4)nc3)CC2)ccc1-c1cc(C)c(=O)n(C)c1 [Example 4, 5-[6-[4-[[2-[(6S)-6-amino-1,4-oxazepan-4-yl]pyrimidin-5-yl]methyl]piperazin-1-yl]-2-ethyl-3-pyridyl]-1,3-dimethyl-pyridin-2-one] | 7.62
5 | Cc1cc(-c2ccc(N3CCN(Cc4cnc(N5CC6(CNCCO6)C5)nc4)CC3)nc2C(C)C)cn(C)c1=O [Example 6, 5-[2-isopropyl-6-[4-[[2-(5-oxa-2,8-diazaspiro[3.5]nonan-2-yl)pyrimidin-5-yl]methyl]piperazin-1-yl]-3-pyridyl]-1,3-dimethyl-pyridin-2-one] | 8.30
6 | Cc1cc(-c2ccc(N3CCN(Cc4cnc(N5CC(C)(N)C5)nc4)CC3)nc2C(C)C)cn(C)c1=O [Example 10, 5-[6-[4-[[2-(3-amino-3-methyl-azetidin-1-yl)pyrimidin-5-yl]methyl]piperazin-1-yl]-2-isopropyl-3-pyridyl]-1,3-dimethyl-pyridin-2-one] | 8.15
7 | Cc1cc(-c2ccc(N3CCN(c4ccc5c(n4)CCNC5)CC3)nc2C(C)C)cn(C)c1=O [Example 15, 5-[2-isopropyl-6-[4-(5,6,7,8-tetrahydro-1,6-naphthyridin-2-yl)piperazin-1-yl]-3-pyridyl]-1,3-dimethyl-pyridin-2-one] | 8.00
8 | Cc1cc(-c2ccc(N3CCC(N4CCNCC4)CC3)nc2C(C)C)cn(C)c1=O [Example 18, 5-[2-isopropyl-6-(4-piperazin-1-yl-1-piperidyl)-3-pyridyl]-1,3-dimethyl-pyridin-2-one] | 8.30
9 | CCc1nc(N2CCN3CCN(c4cnc(N5CC6(CNCCO6)C5)nc4)CC3C2)ccc1-c1cc(C)c(=O)n(C)c1 (stereo not shown) [Example 19, 5-[2-ethyl-6-[2-[2-(5-oxa-2,8-diazaspiro[3.5]nonan-2-yl)pyrimidin-5-yl]-3,4,6,7,9,9a-hexahydro-1H-pyrazino[1,2-a]pyrazin-8-yl]-3-pyridyl]-1,3-dimethyl-pyridin-2-one] | 8.52

The next lines start with the values.

Row | pIC50 | Structure (SMILES)
10 | 8.22 | CCc1nc(N2CCN(Cc3ccc(N4CCNCC4)cc3)CC2)ccc1-c1cc(C)c(=O)n(C)c1 [Example 5, 5-[2-ethyl-6-[4-[(4-piperazin-1-ylphenyl)methyl]piperazin-1-yl]-3-pyridyl]-1,3-dimethyl-pyridin-2-one]
11 | 8.30 | Cc1cc(-c2ccc(N3CCN(Cc4ccc(N5CCNCC5)cn4)CC3)nc2C(C)C)cn(C)c1=O [Example 7, 5-[2-isopropyl-6-[4-[(5-piperazin-1-yl-2-pyridyl)methyl]piperazin-1-yl]-3-pyridyl]-1,3-dimethyl-pyridin-2-one]
12 | 8.30 | Cc1cc(-c2ccc(N3CCN(Cc4cnc(N5CCNCC5)cn4)CC3)nc2C(C)C)cn(C)c1=O [Example 8, 5-[2-isopropyl-6-[4-[(5-piperazin-1-ylpyrazin-2-yl)methyl]piperazin-1-yl]-3-pyridyl]-1,3-dimethyl-pyridin-2-one]
13 | 8.15 | Cc1cc(-c2ccc(N3CCN(Cc4cnc(N5CCNCC5)nc4)CC3)nc2C(C)C)cn(C)c1=O [Example 9, 5-[2-isopropyl-6-[4-[(2-piperazin-1-ylpyrimidin-5-yl)methyl]piperazin-1-yl]-3-pyridyl]-1,3-dimethyl-pyridin-2-one]
14 | 8.10 | Cc1cc(-c2ccc(N3CCN(Cc4ccc(N5CCNCC5)nc4)CC3)nc2C(C)C)cn(C)c1=O [Example 11, 5-[2-isopropyl-6-[4-[(6-piperazin-1-yl-3-pyridyl)methyl]piperazin-1-yl]-3-pyridyl]-1,3-dimethyl-pyridin-2-one]
15 | 8.10 | Cc1cc(-c2ccc(N3CCN(Cc4ncc(N5CCNCC5)cn4)CC3)nc2C(C)C)cn(C)c1=O [Example 12, 5-[2-isopropyl-6-[4-[(5-piperazin-1-ylpyrimidin-2-yl)methyl]piperazin-1-yl]-3-pyridyl]-1,3-dimethyl-pyridin-2-one]
16 | 7.92 | Cc1cc(-c2ccc(N3CCN(Cc4ccc(N5CCNCC5)cc4)CC3)nc2C(C)C)cn(C)c1=O [Example 13, 5-[2-isopropyl-6-[4-[(4-piperazin-1-ylphenyl)methyl]piperazin-1-yl]-3-pyridyl]-1,3-dimethyl-pyridin-2-one]
17 | 7.74 | Cc1cc(-c2ccc(N3CCN(Cc4cccc(N5CCNCC5)c4)CC3)nc2C(C)C)cn(C)c1=O [Example 14, 5-[2-isopropyl-6-[4-[(3-piperazin-1-ylphenyl)methyl]piperazin-1-yl]-3-pyridyl]-1,3-dimethyl-pyridin-2-one]
18 | 8.70 | Cc1cc(-c2ccc(N3CCN4CCN(c5ccc(N6CCNCC6)nc5)CC4C3)nc2C(C)C)cn(C)c1=O (stereo not shown) [Example 16, 5-[2-isopropyl-6-[8-(6-piperazin-1-yl-3-pyridyl)-3,4,6,7,9,9a-hexahydro-1H-pyrazino[1,2-a]pyrazin-2-yl]-3-pyridyl]-1,3-dimethyl-pyridin-2-one]
19 | 7.48 | Cc1cc(-c2ccc(N3CCN(Cc4ccc(N5CCNCC5)cc4)CC3)nc2C(F)F)cn(C)c1=O [Example 17, 5-[2-(difluoromethyl)-6-[4-[(4-piperazin-1-ylphenyl)methyl]piperazin-1-yl]-3-pyridyl]-1,3-dimethyl-pyridin-2-one]
